Data reported in ChEMBL document CHEMBL4371047, “Effect of α-Methoxy Substitution on the Anti-HIV Activity of Dihydropyrimidin-4(3 H)-ones” (J Med Chem, 2019).

Tests used:
[1] = Cytotoxicity against human MT4 cells assessed as reduction in cell viability after 5 days by MTT assay; assay type: cell-based
[2] = target: Human immunodeficiency virus type 1 reverse transcriptase (Human immunodeficiency virus 1) (UniProt Q72547)
Description: Inhibition of recombinant wild type HIV-1 His-tagged reverse transcriptase p66/p51 expressed in Escherichia coli assessed as reduction in [3H]dTTP incorporation using poly(rA)/oligo(dT) as template/primer after 20 mins by scintillation counting analysis

[3] = tested on: Human immunodeficiency virus type 1 reverse transcriptase (Human immunodeficiency virus 1), Q72547 [L100I]
[4] = tested on: Human immunodeficiency virus 1; test: Antiviral activity against HIV-1 IRLL98 harboring reverse transcriptase M41L, D67N, Y181C, M184V, R211K, and T215Y mutants infected in human MT4 cells assessed as inhibition of virus-induced cytopathic effect after 5 days by MTT assay; assay type: functional, organism-based; conditions: Human immunodeficiency virus 1, IRLL98, MT4, 120 h
[5] = tested on: Human immunodeficiency virus 1; test: Resistance index, ratio of EC50 for HIV-1 IRLL98 harboring reverse transcriptase M41L, D67N, Y181C, M184V, R211K, and T215Y mutants to EC50 for wild type HIV-1 NL4-3; assay type: functional
[6] = tested on: Human immunodeficiency virus type 1 reverse transcriptase (Human immunodeficiency virus 1), Q72547 [K103N]
Description: Inhibition of recombinant HIV-1 His-tagged reverse transcriptase p66/p51 K103N mutant expressed in Escherichia coli assessed as reduction in [3H]dTTP incorporation using poly(rA)/oligo(dT) as template/primer after 20 mins by scintillation counting analysis

[7] = Therapeutic index, ratio of CC50 for human MT4 cells to EC50 for HIV-1 NL4-3 infected in human MT4 cells; assay type: toxicity, cell-based; conditions: read-out: Ratio CC50/EC50
[8] = tested on: Human immunodeficiency virus 1; test: Resistance index, ratio of EC50 for HIV-1 harboring reverse transcriptase Y181C mutant to EC50 for wild type HIV-1 NL4-3; assay type: functional
[9] = tested on: Human immunodeficiency virus 1; test: Resistance index, ratio of ID50 for recombinant HIV-1 His-tagged reverse transcriptase p66/p51 K103N mutant to ID50 for recombinant wild type HIV-1 reverse transcriptase His-tagged p66/p51
[10] = tested on: Human immunodeficiency virus type 1 reverse transcriptase (Human immunodeficiency virus 1), Q72547 [Y181I]
[11] = tested on: Human immunodeficiency virus 1; test: Antiviral activity against wild type HIV 1 NL4-3 infected in human MT4 cells assessed as inhibition of virus-induced cytopathic effect after 5 days by MTT assay; assay type: functional, organism-based; conditions: Human immunodeficiency virus 1, NL4-3, MT4, 120 h
[12] = tested on: Human immunodeficiency virus 1; test: Resistance index, ratio of ID50 for recombinant HIV-1 His-tagged reverse transcriptase p66/p51 Y181I mutant to ID50 for recombinant wild type HIV-1 reverse transcriptase His-tagged p66/p51
[13] = tested on: Human immunodeficiency virus 1; test: Resistance index, ratio of ID50 for recombinant HIV-1 His-tagged reverse transcriptase p66/p51 L100I mutant to ID50 for recombinant wild type HIV-1 reverse transcriptase His-tagged p66/p51
[14] = tested on: Human immunodeficiency virus 1; test: Antiviral activity against HIV-1 harboring reverse transcriptase K103N mutant infected in human MT4 cells assessed as inhibition of virus-induced cytopathic effect after 5 days by MTT assay; assay type: functional, organism-based; conditions: Human immunodeficiency virus 1, MT4, 120 h
[15] = tested on: Human immunodeficiency virus 1; test: Antiviral activity against HIV-1 harboring reverse transcriptase Y188L mutant infected in human MT4 cells assessed as inhibition of virus-induced cytopathic effect after 5 days by MTT assay; assay type: functional, organism-based; conditions: Human immunodeficiency virus 1, MT4, 120 h
[16] = tested on: Human immunodeficiency virus 1; test: Antiviral activity against HIV 1 harboring reverse transcriptase Y181C mutant infected in human MT4 cells assessed as inhibition of virus-induced cytopathic effect after 5 days by MTT assay; assay type: functional, organism-based; conditions: Human immunodeficiency virus 1, MT4, 120 h
[17] = tested on: Human immunodeficiency virus 1; test: Resistance index, ratio of EC50 for HIV-1 harboring reverse transcriptase K103N mutant to EC50 for wild type HIV-1 NL4-3; assay type: functional
[18] = tested on: Human immunodeficiency virus 1; test: Resistance index, ratio of EC50 for HIV-1 harboring reverse transcriptase Y188L mutant to EC50 for wild type HIV-1 NL4-3; assay type: functional

Compound | CC50 at 120 h [1] [nM] | ID50 [2] [nM] | ID50 [3] [nM] | EC50 [4] [nM] | Ratio EC50 [5] | ID50 [6] [nM] | selectivity ratio [7] | Ratio EC50 [8] | Ratio [9] | ID50 [10] [nM] | EC50 [11] [nM] | Ratio [12] | Ratio [13] | EC50 [14] [nM] | EC50 [15] [nM] | EC50 [16] [nM] | Ratio EC50 [17] | Ratio EC50 [18]
CCC(C)Sc1nc(C(CC)c2c(F)cccc2F)c(C)c(=O)[nH]1 (stereo not given) | > 3000 | 6 | 48 | 150 | 187 | 140 | > 3750 |  |  |  |  |  |  |  |  |  |  | 
CCC(C)Sc1nc(O)c(C)c(C(C)c2c(F)cccc2F)n1 (stereo not given) | > 3000 | 31 | 670 | 79 | 88 | 1700 | > 3330 |  |  |  |  |  |  |  |  |  |  | 
Cc1c(C(C)c2c(F)cccc2F)nc(SC2CCCC2)[nH]c1=O (stereo not given) | > 3000 | 5 | 300 | 120 | 120 | 300 | > 3000 | 100 | 60 | 900 | 1 | 180 | 60 | 230 |  |  |  | 
CCC(c1nc(SC(C)C)[nH]c(=O)c1C)c1c(F)cccc1F (stereo not given) | > 30000 | 4 | 210 | 280 | 70 | 310 | > 7500 |  |  |  |  |  |  |  |  |  |  | 
Cc1cc(C)c(Nc2ccnc(Nc3ccc(C#N)cc3)n2)c(C)c1 [DAPIVIRINE] |  |  |  | 6 |  |  |  |  |  |  | 0.6 |  |  | 2.2 |  |  |  | 
Cc1c(C(C)c2c(F)cccc2Cl)nc(SC2CCCC2)[nH]c1=O (stereo not given) | > 15000 | 11 | 120 | 68 | 2267 | 1300 | > 500000 |  |  |  |  |  |  |  |  |  |  | 
CCCNc1nc(C(C)c2c(F)cccc2F)c(C)c(=O)[nH]1 (stereo not given) | 35000 | 40 | 310 | 90 | 30 | 470 | 11700 | 20 | 12 | 5020 |  | 125 | 8 |  | > 10000 | 60 |  | 
CCC(c1nc(SC2CCCC2)[nH]c(=O)c1C)c1c(F)cccc1F (stereo not given) | 30000 | 5 | 110 | 750 | 68 | 380 | 2730 | 100 |  |  |  |  |  |  |  |  |  | 
CCCN(C)c1nc([C@@H](OC)c2c(Cl)cccc2Cl)c(C)c(=O)[nH]1 | 45200 | 177 | 4300 |  |  | 438 | 3010 | 12 | 2 | 8700 | 15 | 49 | 24 | 185 | 380 | 185 | 12 | 25
Cc1c([C@@H](C)c2c(F)cccc2F)nc(SC2CCCC2)[nH]c1=O | 35600 | 155 | 2700 |  |  | 540 | 3240 | 116 | 3 | 4800 | 11 | 31 | 17 | 282 | 8200 | 1280 | 26 | 745
Cc1c(O)nc(SC(C)C)nc1C(C)c1c(F)cccc1F (stereo not given) |  | 3 | 280 | 145 | 145 | 580 |  |  |  |  |  |  |  |  |  |  |  | 
COC(c1nc(NC2CCCC2)[nH]c(=O)c1C)c1c(F)cccc1Cl (stereo not given) | 70300 | 40 | 1100 |  |  | 120 | 10000 | 56 | 3 | 1500 | 7 | 37 | 27 | 170 | 3700 | 390 | 24 | 529
